Consider seven compounds from patent US6372804B1, “Noxious-insect repellent” (Kanebo, Ltd., priority 1991, dated 2002).

A short description of data set [1]: solubility in a 90 wt. % ethanol aqueous solution. The data set is classed as physicochemical. Set-up: key: ◯: Soluble; X: Insoluble. How it is done:
(§1) With the purpose of investigating the properties of the compounds to be used for the present invention, solubilities in a 90 wt. % ethanol aqueous solution and stabilities at 0° C., room temperature and 40° C., of hydroxymethyl-menthol, 2-hydroxymethyl-2-butyl-cyclopentanol and 2-(1-hydroxyisopropyl)-5,6-dimethyl-cyclohexanone, were investigated. […] Furthermore, it can be understood that the quantity of the repellent compound is preferred to be at most 20% by weight, in view of touch in use.

For data set [2], the system named is imagoes of the tiger mosquito, Aedes albopictus. As to the kind of experiment: noxious-insect repellency test (treated forearm in a cage of tiger mosquitoes, percent repellency from biting marks). It counts as in vivo. The following applies: for Percent repellency: an hour after application; for noxious-insect repelling effect and durability (result in words): lotion or milky lotion containing the compound, tiger mosquito imagoes. How it is done:
In each example, the noxious-insect repellency test was conducted as follows:
Test method of noxious-insect repelling effect and durability thereof In order to assess the repelling effect against imagoes of the tiger mosquito, Aedes albopictus, the following test was conducted at a room temperature of 30° C. and a relative humidity of 70% in an air-conditioned room. 10 ml each of test samples was applied to left and right forearms. Each treated forearm was introduced into a wire gauze cage (20 cm L.×15 cm Dia.) containing 50 female and 50 male tiger mosquitoes 5-7 days old after eclosion, for 15 minutes to afford time for biting. The assessment was repeated 30 minutes, 1 hour, 2 hours, 4 hours and 6 hours after the test sample was applied. The number of marks made by biting within each biting time was counted and a percent repellency was calculated using the following formula:
Percent repellency=(X−Y)/X×100 (%)
X: the number of the marks made by biting when the test sample was not applied,
Y: the number of the marks made by biting when the test sample was applied.

Data set [3] in a line: stability in a 90 wt. % ethanol aqueous solution at 0° C., room temperature and 40° C. The data set is classed as physicochemical. Also noted: key: ◯: Stable; X: Precipitated. How it is done: as §1
Where [4] appears, read: 0° C., content 10% (wt. %) in 90 wt. % ethanol aqueous solution.
[5] abbreviates: 0° C., content 20% (wt. %) in 90 wt. % ethanol aqueous solution.
[6] abbreviates: 0° C., content 50% (wt. %) in 90 wt. % ethanol aqueous solution.
[7] abbreviates: 0° C., content 90% (wt. %) in 90 wt. % ethanol aqueous solution.
Where [8] appears, read: 0° C., content 95% (wt. %) in 90 wt. % ethanol aqueous solution.
The mark [9] stands for this setting: 40° C., content 10% (wt. %) in 90 wt. % ethanol aqueous solution.
The mark [10] stands for this setting: 40° C., content 20% (wt. %) in 90 wt. % ethanol aqueous solution.
Setting [11] is: 40° C., content 50% (wt. %) in 90 wt. % ethanol aqueous solution.
Setting [12] is: 40° C., content 90% (wt. %) in 90 wt. % ethanol aqueous solution.
The mark [13] stands for this setting: 40° C., content 95% (wt. %) in 90 wt. % ethanol aqueous solution.
The mark [14] stands for this setting: room temperature, content 10% (wt. %) in 90 wt. % ethanol aqueous solution.
The mark [15] stands for this setting: room temperature, content 20% (wt. %) in 90 wt. % ethanol aqueous solution.
Setting [16] is: room temperature, content 50% (wt. %) in 90 wt. % ethanol aqueous solution.
The mark [17] stands for this setting: room temperature, content 90% (wt. %) in 90 wt. % ethanol aqueous solution.
[18] abbreviates: room temperature, content 95% (wt. %) in 90 wt. % ethanol aqueous solution.

For the compound `CCCCC1(CO)CCCC1O` (stereo not drawn) [2-Hydroxymethyl-2-butyl-cyclopentanol, 2-hydroxymethyl-2-butyl-cyclopentanol], the Solubility entry in data set [1] (setting [4]), in data set [1] (setting [5]), in data set [1] (setting [6]), in data set [1] (setting [7]), in data set [1] (setting [8]) and in data set [1] (setting [9]) was “◯” in each case. For the same compound, the Solubility result in data set [1] (setting [10]), in data set [1] (setting [11]), in data set [1] (setting [12]), in data set [1] (setting [13]), in data set [1] (setting [14]) and in data set [1] (setting [15]) was “◯” in each case. Moreover, the Solubility result in data set [1] (setting [16]), in data set [1] (setting [17]) and in data set [1] (setting [18]) was “◯” each time. Moreover, the figures for the Percent repellency in data set [2] (content 0.1% (wt. %) in 40 wt. % ethanol aqueous solution), in data set [2] (content 1% (wt. %) in 40 wt. % ethanol aqueous solution) and in data set [2] (content 3% (wt. %) in 40 wt. % ethanol aqueous solution) were 24%, 60% and 88%, respectively. Moreover, the Stability entry in data set [3] (setting [4]) is “◯”; in data set [3] (setting [5]), “◯”; in data set [3] (setting [6]), “◯”; in data set [3] (setting [7]) it was “◯”; in data set [3] (setting [8]), “X”; in data set [3] (setting [9]), “◯”. The Stability result in data set [3] (setting [10]), in data set [3] (setting [11]), in data set [3] (setting [12]), in data set [3] (setting [13]), in data set [3] (setting [14]) and in data set [3] (setting [15]) was “◯” in each case. Also, the Stability entry in data set [3] (setting [16]) is “◯”; in data set [3] (setting [17]), “◯”; in data set [3] (setting [18]), “X”.

`CCCC(O)C1C(=O)CCC1CC` (stereo not drawn) [2-(1-hydroxybutyl)-3-ethyl-cyclopentanone]: the “noxious-insect repelling effect and durability (result in words)” value in data set [2] is “excellent noxious-insect repelling effect and durability”.

Consider `CC(C)C1CC(C)C(O)C(CO)C1` (stereo not drawn) [2-hydroxymethyl-4-isopropyl-6-methyl-cyclohexanol], for which the “noxious-insect repelling effect and durability (result in words)” value in data set [2] is “excellent noxious-insect repelling effect and durability”.

Turning to `O=C1CCCCCCC1CO` (stereo not drawn) [2-hydroxymethyl-cyclooctanone], the “noxious-insect repelling effect and durability (result in words)” value in data set [2] was “excellent noxious-insect repelling effect and durability”.

For `CC(O)C1C2CCC(C)(C1O)C2(C)C` (stereo not drawn) [3-(1-hydroxyethyl)-borneol], in data set [2], the “noxious-insect repelling effect and durability (result in words)” value is “excellent noxious-insect repelling effect and durability”.

As for `C=CCC1C(C)CCC(C(C)(C)O)C1O` (stereo not drawn) [p-menthane-2-(2-propenyl)-3,8-diol], the “noxious-insect repelling effect and durability (result in words)” value in data set [2] is “excellent noxious-insect repelling effect and durability”.

As to `C=C1C(C)CCC(C(C)(C)O)C1O` (stereo not drawn) [MMED, p-menthane-2-methylene-3,8-diol], the “noxious-insect repelling effect and durability (result in words)” value in data set [2] is “excellent noxious-insect repelling effect and durability”.
